pIC50: −log10 of the molar value. Where a name gives a salt, the structure may show the parent alone.
Tests used:
[1] = target: T1, human 15-LO (Homo sapiens, UniProt P16050); assay: 15-LO inhibition, human enzyme; type: biochemical; conditions: linoleic acid as substrate; for inhibition at 10 µM: at 10 micromolar
T1 sequence (P16050 1-662): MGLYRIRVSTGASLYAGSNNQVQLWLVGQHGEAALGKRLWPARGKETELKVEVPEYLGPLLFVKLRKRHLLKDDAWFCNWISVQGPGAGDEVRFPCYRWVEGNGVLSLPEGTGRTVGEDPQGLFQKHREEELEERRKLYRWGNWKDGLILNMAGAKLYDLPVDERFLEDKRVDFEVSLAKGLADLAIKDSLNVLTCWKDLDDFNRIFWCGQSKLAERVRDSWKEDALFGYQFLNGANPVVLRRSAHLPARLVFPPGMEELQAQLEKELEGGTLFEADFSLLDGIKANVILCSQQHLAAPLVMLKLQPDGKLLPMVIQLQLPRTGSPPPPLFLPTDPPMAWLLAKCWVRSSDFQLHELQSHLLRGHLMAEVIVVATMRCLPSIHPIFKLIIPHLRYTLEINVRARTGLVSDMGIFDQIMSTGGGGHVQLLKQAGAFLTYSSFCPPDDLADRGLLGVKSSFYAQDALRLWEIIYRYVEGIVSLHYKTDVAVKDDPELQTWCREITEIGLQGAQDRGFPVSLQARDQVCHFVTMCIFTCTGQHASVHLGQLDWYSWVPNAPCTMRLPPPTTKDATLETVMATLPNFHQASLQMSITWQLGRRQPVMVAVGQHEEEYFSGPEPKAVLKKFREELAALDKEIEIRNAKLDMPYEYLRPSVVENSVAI
Description: The compounds described above are effective inhibitors of 15-LO when evaluated in standard assays routinely utilized to measure 15-LO activity. Specifically, representative compounds were evaluated by the methods described by Auerbach et al., Analytical Biochemistry, 1992;201:375-380. Two in vitro assays were utilized, one utilizing rabbit reticulocyte 15-LO, the other using human 15-LO. Both used linoleic acid as substrate, to enzymatically produce a peroxide oxidation product known as 13(S)-HPODE. N-Benzoyl leucomethylene blue was utilized as a colorimetric reagent for detection and quantification of the peroxide formation. Also, HPLC was utilized to quantify the oxidation following incubation at 4° C. for 10 minutes.
Data Column 1 gives the concentration of compound required to inhibit 50% of the activity of 15-LO (IC50) when measured by the HPLC method of Auerbach et al. using rabbit enzymes, and data Column 2 gives data from human 15-LO enzyme.

melting point	pIC50 [1]	SMILES	inhibition at 10 µM [1] [%]
200 to 201 °C (dec.)		COc1ccc(-c2cc3cc(F)c(F)cc3[nH]2)cc1Nc1cccc(OCc2ccccc2)c1 (as salt: HCl) [Example 53, [5-(5,6-Difluoro-1H-indol-2-yl)-2-methoxy-phenyl]-(3-benzyloxy-phenyl)-amine]	
235 to 238 °C	7.70	COc1ccc(-c2cc3cc(F)c(F)cc3[nH]2)cc1NS(=O)(=O)c1cccc(N)c1 [Example 16, 3-Amino-N-[5-(5,6-difluoro-1H-indol-2-yl)-2-methoxy-phenyl]-benzenesulfonamide]	
	6.73	COc1ccc(-c2cc3ccccc3[nH]2)cc1NC(=S)Nc1ccc(S(N)(=O)=O)cc1 [Example 17, 4-{3-[5-(1H-Indol-2-yl)-2-methoxy-phenyl]-thioureido}-benzenesulfonamide]	
148 to 149 °C	7.89	CCCCCCCCCCCCS(=O)(=O)Nc1cc(-c2cc3cc(F)c(F)cc3[nH]2)ccc1OC [Example 20, Dodecane-1-sulfonic acid [5-(5,6-difluoro-1H-indol-2-yl)-methoxy-phenyl]-amide]	
203 to 204 °C		CCCCCCCCCCCCS(=O)(=O)Nc1cc(-c2nc3cc(Cl)c(Cl)cc3[nH]2)ccc1OC [Example 21, Dodecane-1-sulfonic acid [5-(5,6-dichloro-1H-benzoimidazol-2-yl)-2-methoxy-phenyl]-amide]	65
144 to 146 °C	7.32	COc1ccc(-c2cc3cc(F)c(F)cc3[nH]2)cc1Nc1cccc(C(F)(F)F)c1 [Example 22, [5-(5,6-Difluoro-1H-indol-2-yl)-2-methoxy-phenyl]-(3-trifluoro-methylphenyl)-amine]	
240 to 243 °C	5.68	COc1ccc(-c2cc3cc(F)c(F)cc3[nH]2)cc1NC(=O)Nc1cc(Cl)cc(Cl)c1 [Example 25, 1-(3,5-Dichloro-phenyl)-3-[5-(5,6-difluoro-1H-indol-2-yl)-2-methoxy-phenyl]-urea]	
188 to 191 °C	6.59	COc1ccc(-c2cc3ccccc3[nH]2)cc1NC(N)=S [Example 26, [5-(1H-Indol-2-yl)-2-methoxy-phenyl]-thiourea]	
179 to 181 °C	5.75	COc1ccc(-c2cc3ccccc3[nH]2)cc1NC(=S)N[C@H](C)c1ccccc1 [Example 27, (R)-1-[5-(1H-Indol-2-yl)-2-methoxy-phenyl]-3(1-phenyl-ethyl)-thiourea]	
239 to 242 °C	6.10	COc1ccc(-c2cc3cc(F)c(F)cc3[nH]2)cc1NS(=O)(=O)c1cccc(C#N)c1 [Example 28, 3Cyano-N-[5-(5,6-difluoro-1H-indol-2-yl)-2-methoxy-phenyl]-benzenesulfonamide]	
	6.33	CNc1cc(-c2cc3ccccc3[nH]2)ccc1OC [Example 29, [5-(1H-Indol-2-yl)-2-methoxy-phenyl]-methyl-amine]	
	5.74	COc1ccc(-c2cc3cc(F)c(F)cc3[nH]2)cc1NC(=S)Nc1cc(C(=O)O)cc(C(=O)O)c1 [Example 30, 5-{3-[5-(5,6-Difluoro-1H-indol-2-yl)-2-methoxy-phenyl]-thioureido}-isophthalic acid]	
159 to 160 °C	6.85	COc1ccc(-c2cc3ccccc3[nH]2)cc1NC(=S)NCCNC(=O)OC(C)(C)C [Example 31, (2-{3-[5-(1H-Indol-2-yl)-2-methoxy-phenyl]-thioureido}-ethyl)-carbamic acid tert-butyl ester]	
201 to 203 °C	6.52	COc1ccc(-c2cc3ccccc3[nH]2)cc1NC(=S)Nc1ccc(C(=O)O)cc1 [Example 32, 4-{3-[5-(1H-Indol-2-yl)-2-methoxy-phenyl]-thioureido}-benzoic acid]	
174 to 175 °C	6.13	COc1ccc(-c2cc3ccccc3[nH]2)cc1NC(=S)Nc1cccc(CC(=O)O)c1 [Example 33, (3-{3-[5-(1H-Indol-2-yl)-2-methoxy-phenyl]-thioureido}-phenyl)-acetic acid]	
190 to 192 °C	5.84	COc1ccc(-c2cc3ccccc3[nH]2)cc1NC(=S)Nc1ccc(CC(=O)O)cc1 [Example 34, (4-{3-[5-(1H-Indol-2-yl)-2-methoxy-phenyl]-thioureido}-phenyl)-acetic acid]	
102 to 106 °C	6.27	COc1ccc(-c2cc3cc(F)c(F)cc3[nH]2)cc1NC(=S)N[C@@H](C)c1ccccc1 [Example 35, 1-[5-(5,6-Difluoro-1H-indol-2-yl)-2-methoxy-phenyl]-3-((S)-1-phenyl-ethyl)-thiourea]	
	6.21	COc1ccc(-c2cc3cc(F)c(F)cc3[nH]2)cc1NC(=S)N[C@@H](CO)[C@@H](O)c1ccccc1 [Example 40, 1-[5-(5,6-Difluoro-1H-indol-2-yl)-2-methoxy-phenyl]-3-((1S,2S)-2-hydroxy-1-hydroxymethyl-2-phenyl-ethyl)-thiourea]	
160 to 162 °C	6.06	COc1ccc(-c2cc3ccccc3[nH]2)cc1NCc1cccc([N+](=O)[O-])c1 [Example 42, [5-(1H-indol-2-yl)-2-methoxy-phenyl]-(3-nitro-benzyl)-amine]	
198 to 199 °C	6.04	COc1ccc(-c2cc3ccccc3[nH]2)cc1NCc1ccc([N+](=O)[O-])cc1 [Example 43, [5-(1H-Indol-2-yl)-2-methoxy-phenyl]-(4-nitro-benzyl)-amine]	
134 to 135 °C	6.63	COc1ccc(-c2cc3ccccc3[nH]2)cc1NCc1ccc([N+](=O)[O-])c(O)c1 [Example 44, [5-(1H-Indol-2-yl)-2-methoxy-phenyl]-(3-hydroxy-4-nitro-benzyl)-amine]	
165 to 166 °C	6.38	COc1ccc(-c2cc3ccccc3[nH]2)cc1NCc1ccc(O)c([N+](=O)[O-])c1 [Example 45, [5-(1H-Indol-2-yl)-2-methoxy-phenyl]-(4-hydroxy-3-nitro-benzyl)-amine]	
212 to 214 °C	5.52	COc1ccc(-c2cc3cc(F)c(F)cc3[nH]2)cc1NCc1cccc([N+](=O)[O-])c1 [Example 46, [5-(5,6-Difluoro-1H-indol-2-yl)-2-methoxy-phenyl]-(3-nitro-benzyl)-amine]	
181 to 182 °C	6.27	COc1ccc(-c2cc3cc(F)c(F)cc3[nH]2)cc1NCc1ccc([N+](=O)[O-])cc1 [Example 47, [5-(5,6-Difluoro-1H-indol-2-yl)-2-methoxy-phenyl]-(4nitro-benzyl)-amine]	

SMILES	melting point	pIC50 [1]	inhibition at 10 µM [1] [%]
CCOP(=O)(Cc1ccc(NC(=S)Nc2cc(-c3cc4ccccc4[nH]3)ccc2OC)cc1)OCC [Example 23, (4-{3-[5-(1H-Indol-2-yl)-2-methoxy-phenyl]-thioureido}-benzyl)-phosphonic acid diethyl ester]		6.48	
COc1ccc(-c2cc3cc(F)c(F)cc3[nH]2)cc1NC(=S)N[C@@H](COC(C)(C)C)C(=O)OC(C)(C)C [Example 36, (S)-3-tert-Butoxy-2-{3-[5-(5,6-Difluoro-1H-indol-2-yl)-2-methoxy-phenyl]-thioureido}-propionic acid tert-butyl ester]	111 to 114 °C		51

Reference: patent US6858739B2, “Indole and benzimidazole 15-lipoxygenase inhibitors” (Warner-Lambert Company, priority 2000, dated 2005)
